Data set [1] addresses T1, adenosine A2b receptor (Homo sapiens, UniProt P29275).
T1 construct: expressed in transfected cells; host or cells: CHO (Chinese Hamster Ovary) cells, stably transfected
T1 sequence (P29275 1-332): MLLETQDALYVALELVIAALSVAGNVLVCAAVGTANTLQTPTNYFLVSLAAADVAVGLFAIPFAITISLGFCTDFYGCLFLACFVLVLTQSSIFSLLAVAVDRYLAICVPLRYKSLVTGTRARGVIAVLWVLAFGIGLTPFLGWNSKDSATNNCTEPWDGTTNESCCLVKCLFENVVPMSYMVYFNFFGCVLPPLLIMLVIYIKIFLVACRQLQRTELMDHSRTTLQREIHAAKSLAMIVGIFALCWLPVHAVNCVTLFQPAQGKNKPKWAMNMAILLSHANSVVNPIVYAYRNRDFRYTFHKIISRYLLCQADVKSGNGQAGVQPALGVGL
Description: Indirect determination of adenosine agonism by gene expression (luciferase, cAMP-dependent promoter), A2b cells. In kind it is cell-based. The following applies: CHO cells stably transfected with A2b receptor cDNA; 50% of maximum stimulation of luciferase. The text has this:
(§1) Indirect Determination of the Adenosine Agonism by Way of Gene Expression
(§2) Cells of the CHO (Chinese Hamster Ovary) permanent cell line are transfected stably with the cDNA for the adenosine receptor subtypes A1, A2a and A2b. The adenosine A1 receptors are coupled to the adenylate cyclase by way of Gi proteins, while the adenosine A2a and A2b receptors are coupled by way of Gs proteins. In correspondence with this, the formation of cAMP in the cell is inhibited or stimulated, respectively. After that, expression of the luciferase is modulated by way of a cAMP-dependent promoter. The luciferase test is optimized, with the aim of high sensitivity and reproducibility, low variance and good suitability for implementation on a robot system, by varying several test parameters, such as cell density, duration of the growth phase and the test incubation, forskolin concentration and medium composition. The following test protocol is used for pharmacologically characterizing cells and for the robot-assisted substance screening:
(§3) The stock cultures are grown, at 37° C. and under 5% CO2, in DMEM/F12 medium containing 10% FCS (foetal calf serum) and in each case split 1:10 after 2-3 days. The test cultures are seeded in 384-well plates with 2000 cells per well and grown at 37° C. for approx. 48 hours. The medium is then replaced with a physiological sodium chloride solution (130 mM sodium chloride, 5 mM potassium chloride, 2 mM calcium chloride, 20 mM HEPES, 1 mM magnesium chloride hexahydrate, 5 mM sodium bicarbonate, pH 7.4). The substances to be tested, which are dissolved in DMSO, are pipetted into the test cultures (maximum final concentration of DMSO in the test mixture: 0.5%) in a dilution series of from 1.1×10^−11M to 3×10^−6M (final concentration). 10 minutes later, forskolin is added to the A1 cells and all the cultures are subsequently incubated at 37° C. for four hours. After that, 35 μl of a solution which is composed of 50% lysis reagent (30 mM disodium hydrogenphosphate, 10% glycerol, 3% TritonX100, 25 mM TrisHCl, 2 mM dithiotreitol (DTT), pH 7.8) and 50% luciferase substrate solution (2.5 mM ATP, 0.5 mM luciferin, 0.1 mM coenzyme A, 10 mM tricine, 1.35 mM magnesium sulfate, 15 mM DTT, pH 7.8) are added to the test cultures, which are shaken for approx. 1 minute and the luciferase activity is measured using a camera system. The EC50 values are determined, i.e., the concentrations at which 50% of the luciferase answer is inhibited in the case of the A1 cell, and, respectively, 50% of the maximum stimulation with the corresponding substance is achieved in the case of the A2b and A2a cells. […] Pharmacol., 357 (1998), 1-9).
(§4) Table 1 below lists the EC50 values of representative working examples of compounds of the formula (IA) for the receptor stimulation on adenosine A1, A2a and A2b receptor subtypes: […]

The target of data set [2] is T2, adenosine A1 receptor (Homo sapiens, UniProt P30542).
T2 construct: expressed in transfected cells; host or cells: CHO (Chinese Hamster Ovary) cells, stably transfected
T2 sequence (P30542 1-326): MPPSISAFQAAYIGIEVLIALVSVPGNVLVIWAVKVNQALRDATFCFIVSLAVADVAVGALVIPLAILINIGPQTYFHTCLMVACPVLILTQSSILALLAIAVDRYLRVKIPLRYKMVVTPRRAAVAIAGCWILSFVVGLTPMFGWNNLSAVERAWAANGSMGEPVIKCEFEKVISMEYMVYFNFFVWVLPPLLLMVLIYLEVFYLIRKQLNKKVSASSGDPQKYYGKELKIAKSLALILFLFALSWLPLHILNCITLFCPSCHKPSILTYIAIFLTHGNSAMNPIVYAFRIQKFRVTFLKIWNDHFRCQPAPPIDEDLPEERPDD
Description: Indirect determination of adenosine agonism by gene expression (luciferase, cAMP-dependent promoter), A1 cells. In kind it is cell-based. The following applies: CHO cells stably transfected with A1 receptor cDNA; 1 μM forskolin; concentration at which 50% of the luciferase answer is inhibited.
Description: as §1, §2, §3, §4

In data set [3] the target is T3, adenosine A2a receptor (Homo sapiens, UniProt P29274).
T3 construct: expressed in transfected cells; host or cells: CHO (Chinese Hamster Ovary) cells, stably transfected
Description: Indirect determination of adenosine agonism by gene expression (luciferase, cAMP-dependent promoter), A2a cells. The following applies: CHO cells stably transfected with A2a receptor cDNA; 50% of maximum stimulation of luciferase. Format: cell-based.
Description: as §1, §2, §3, §4

Where a name gives a salt, the structure may show the parent alone.

One may read the melting point as the temperature of the solid-liquid transition. The term EC50 denotes the concentration giving half of the maximal effect.

T3 sequence (P29274 whole entry): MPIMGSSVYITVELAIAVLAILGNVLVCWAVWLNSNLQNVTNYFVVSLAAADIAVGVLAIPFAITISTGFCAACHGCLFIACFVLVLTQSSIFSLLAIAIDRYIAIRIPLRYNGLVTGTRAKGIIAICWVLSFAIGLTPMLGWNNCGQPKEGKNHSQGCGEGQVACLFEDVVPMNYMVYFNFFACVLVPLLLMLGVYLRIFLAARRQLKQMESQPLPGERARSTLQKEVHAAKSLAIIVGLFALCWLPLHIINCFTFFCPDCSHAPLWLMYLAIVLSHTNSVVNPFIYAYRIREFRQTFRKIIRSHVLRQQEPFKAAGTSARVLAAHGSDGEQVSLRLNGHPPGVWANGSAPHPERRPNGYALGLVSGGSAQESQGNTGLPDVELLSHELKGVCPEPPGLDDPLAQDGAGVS

Turning to `N#Cc1c(N)nc(SCc2csc(Nc3cccc(Cl)c3)n2)c(C#N)c1-c1ccc(OCC(O)CO)cc1` (stereo not shown) [Example 1, 2-Amino-6-[({2-[(3-chlorophenyl)amino]-1,3-thiazol-4-yl}methyl)thio]-4-[4-(2,3-dihydroxypropoxy)phenyl]pyridine-3,5-dicarbonitrile], the melting point lay in the range of 192 to 194 °C.
On to `COCCOc1ccc(-c2c(C#N)c(N)nc(SCc3csc(Nc4ccc(C)cc4)n3)c2C#N)cc1` [Example 26], for which the 50% effective concentration (EC50) in data set [1] was 74 nM; in data set [2] it was 23 nM; in data set [3], more than 3000 nM.
For `Cc1cccc(Nc2nc(CSc3nc(N)c(C#N)c(-c4ccc(OCC(O)CO)cc4)c3C#N)cs2)c1` (stereo not shown) [Example 2] the same measures were 6.1 nM, 9.9 nM and 747 nM.
Regarding `N#Cc1c(N)nc(SCc2csc(Nc3ccc(F)cc3)n2)c(C#N)c1-c1ccc(OCCN)cc1` [Example 70, 2-Amino-4-[4-(2-aminoethoxy)phenyl]-6-[({2-[(4-fluorophenyl)amino]-1,3-thiazol-4-yl}methyl)-thio]pyridine-3,5-dicarbonitrile hydrochloride], the concentration for a half-maximal effect (EC50) in data set [1] was 28 nM; in data set [2], 2.3 nM; in data set [3], more than 3000 nM.
`N#Cc1c(N)nc(SCc2csc(Nc3ccc(F)c(Cl)c3)n2)c(C#N)c1-c1ccc(OC[C@@H](O)CO)cc1` [Example 48]: the EC50 was 0.1 nM in data set [1], 0.4 nM in data set [2] and 140 nM in data set [3].
For the compound `N#Cc1ccc(Nc2nc(CSc3nc(N)c(C#N)c(-c4ccc(OCCO)cc4)c3C#N)cs2)cc1` [Example 21], the values for the EC50 in data set [1], in data set [2] and in data set [3] were 0.5 nM, 0.7 nM and 103 nM, respectively.
Taken in the same sequence, the figures for `COc1cc(Nc2nc(CSc3nc(N)c(C#N)c(-c4ccc(OC[C@@H](O)CO)cc4)c3C#N)cs2)ccc1F` [Example 39] were 1.4 nM, 0.3 nM and 1200 nM.
For `N#Cc1c(N)nc(SCc2csc(Nc3ccc(F)cc3F)n2)c(C#N)c1-c1ccc(OCCO)cc1` [Example 10, 2-Amino-6-[({2-[(2,4-difluorophenyl)amino]-1,3-thiazol-4-yl}methyl)thio]-4-[4-(2-hydroxyethoxy)phenyl]pyridine-3,5-dicarbonitrile] the same measures were 1 nM, 2 nM and more than 200 nM.
For `N#Cc1c(N)nc(SCc2csc(Nc3ccc(F)cc3)n2)c(C#N)c1-c1ccc(OCCO)cc1` [Example 8, 2-Amino-6-[({2-[(4-fluorophenyl)amino]-1,3-thiazol-4-yl}methyl)thio]-4-[4-(2-hydroxyethoxy)-phenyl]pyridine-3,5-dicarbonitrile] the same measures were 1 nM, 1 nM and 300 nM.
As for `N#Cc1c(N)nc(SCc2csc(Nc3cccc(Cl)c3)n2)c(C#N)c1-c1ccc(OC[C@@H](O)CO)cc1` [Example 35], the EC50 in data set [1] came out at 0.3 nM; in data set [2], 0.4 nM; in data set [3], 142 nM.
Taken in the same sequence, the figures for `N#Cc1c(N)nc(SCc2csc(Nc3cccc(F)c3)n2)c(C#N)c1-c1ccc(OC[C@@H](O)CO)cc1` [Example 44] were 0.3 nM, 0.6 nM and 140 nM.
Taken in the same sequence, the figures for `N#Cc1c(N)nc(SCc2csc(Nc3ccc(C(=O)O)cc3)n2)c(C#N)c1-c1ccc(OCCO)cc1` [Example 13, 4-({4-[({6-Amino-3,5-dicyano-4-[4-(2-hydroxyethoxy)phenyl]pyridin-2-yl}thio)methyl]-1,3-thiazol-2-yl}amino)benzoic acid] were 0.1 nM, 0.2 nM and 236 nM.

The values are drawn from patent US20100048641A1, “Use of Adenosine A1 and/or Dual A1/2ab Agonists for Production of Medicaments for Treating Diseases” (BAYER HEALTHCARE AG LAW AND PATENTS,PATENTS AND LICENSING, priority 2006, published 2010).
